Columns and labels:
[1] = Human pharmacokinetic (PK) crossover study of caffeine versus d9-caffeine; plasma metabolites paraxanthine / paraxanthine-d6; assay type: in vivo; details: for elimination ½ life: estimated, over both dose levels (0.26 and 1.29 mmol caffeine or d9-caffeine), as metabolite in human plasma; for AUC(0-t) / Cmax / Tmax / half-life: human, plasma, plasma metabolite, arithmetic mean, healthy adults
Description: A double-blind, randomized, two-part, two-period crossover study was conducted to evaluate the pharmacokinetics of caffeine versus d9-caffeine (depicted as compound 14 within U.S. Pat. No. 10,582,716, the disclosure of which is incorporated herein by reference) and their respective metabolites at two dose levels in 20 healthy adult volunteers. A single dose of 50 mg (0.26 mmol) or 250 mg (1.29 mmol) of caffeine, or a molar-equivalent dose of d9-caffeine, were administered in aqueous solution with blood samples collected for up to 48 hours post-dose. Plasma concentrations of parent and metabolites were analyzed using validated LC-MS/MS methods. The pharmacokinetic parameters of the primary caffeine metabolite, paraxanthine, and its respective counterpart, paraxanthine-d6, were analyzed and are reported in Table 2. The elimination ½ life of paraxanthine was estimated at 5-8 hours, consistent with published literature. The elimination ½ life of paraxathine-d6 was estimated at >18-22 hours, a […] difference. […] The data from this study supports the administration of paraxanthine-d6 once daily to humans to prevent or treat various diseases and conditions.

[2] = Pharmacokinetic (PK) study in Sprague-Dawley rats, plasma, oral (gavage) dose; assay type: in vivo; details: rat; for AUC(0-t) / Cmax / Tmax: plasma, single oral (gavage) dose, fasted male Sprague Dawley rats, target dose 30 mg/kg (paraxanthine-d6 31 mg/kg, adjusted for MW)
Description: Two groups of fasted male Sprague-Dawley rats (12 animals per group) may be administered an oral single dose of paraxanthine in deionized water (Group 1) or paraxanthine-d6 (a compound of Formula (Ia)), in deionized water (Group 2) at a target dose level of […]. Serial blood samples may be collected from three animals per group per timepoint prior to dosing and at 0.25, 0.5, 1, 2, 3 4, 6, 8, 10, 12, and 14-hours post dose. No more than three blood samples may be collected from individual animals with the last sample being a terminal blood draw. Terminal brain samples may be collected from three animals per group at 1, 4, 8, and 14-hours post dose. Blood samples may be collected into tubes containing sodium heparin, and then processed for plasma and stored frozen until bioanalysis. Brain samples may be collected following the terminal blood collection, rinsed with saline, and stored frozen until bioanalysis. Plasma and brain samples may be analyzed for paraxanthine and paraxanthine-d6 (a compound of Formula (Ia)) concentration using a liquid chromatography-tandem mass spectrometry (LC-MS/MS) method. Non-compartmental pharmacokinetic parameter estimates may be calculated from the mean plasma concentration-time data. A pharmacokinetic (PK) study was conducted in Sprague-Dawley rats. Mean pharmacokinetic parameter estimates in plasma for paraxanthine and paraxanthine-d6 (a compound of Formula (Ia)) following an oral dose of paraxanthine or D6-paraxanthine to male Sprague-Dawley rats are reported in Table 1. […] The dose level for paraxanthine-d6 (a compound of Formula (Ia)) was adjusted to account for molecular weight differences between paraxanthine (MW=180.17) and paraxanthine-d6 (MW=186.2).

[3] = single dose 0.26 mmol caffeine (paraxanthine) or 0.26 mmol d9-caffeine (paraxanthine-d6)
[4] = single dose 1.29 mmol caffeine (paraxanthine) or 1.29 mmol d9-caffeine (paraxanthine-d6)

| Structure (SMILES) | elimination ½ life [1] | AUC(0-t) [1, 3] | Cmax [1, 3] | Tmax [1, 3] | half-life [1, 3] | AUC(0-t) [1, 4] | Cmax [1, 4] | Tmax [1, 4] | half-life [1, 4] | AUC(0-t) [2] | Cmax [2] | Tmax [2] | elimination ½ life of paraxanthine-d6 compared with paraxanthine ([2]; in vivo) |
| --- | --- | --- | --- | --- | --- | --- | --- | --- | --- | --- | --- | --- | --- |
| Cn1c(=O)[nH]c2ncn(C)c2c1=O [Paraxanthine, paraxanthine] | 5 to 8 h | 31.5 µM·h | 1620 nM | 8.22 h | 7.58 h | 122 µM·h | 7170 nM | 7.5 h | 5.74 h | 170 µg·h/mL | 38900 ng/mL | 0.5 h |  |
| [2H]C([2H])([2H])n1c(=O)[nH]c2ncn(C([2H])([2H])[2H])c2c1=O [Paraxanthine-d6, paraxanthine-d6] | 18 to 22 h | 110 µM·h | 2900 nM | 21.1 h | > 18 h | 110 µM·h | 2900 nM | 21.1 h | > 22 h | 196 µg·h/mL | 42400 ng/mL | 0.5 h | no difference |

Source: patent US20230355632A1, “DEUTERATED PARAXANTHINE AND USES THEREOF” (Lennham Pharmaceuticals, Inc., priority 2020, published 2023)
